Measurements as given in the supplement of paper PMC10307832.

What was measured:
Experiment in all cases: relative viability (nuclei count vs DMSO), 5 days (fraction); higher = more cells survive
[1] = compound: Nc1ccccc1NC(=O)c1ccc(CNC(=O)OCc2cccnc2)cc1 [Entinostat] + Cc1nc(Nc2ncc(C(=O)Nc3c(C)cccc3Cl)s2)cc(N2CCN(CCO)CC2)n1 [Dasatinib] (partner 0.075 µM)
Outline: (§1)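 Lung cancer cell lines were pin-tool dosed in 1536-well plates on the day after seeding, with either a lone drug or a fixed anchor-drug dose plus five library-drug doses (not always all listed) in √10 steps. Nuclei were counted on 4× images after 5 days. Relative viability is the ratio of treated-well to vehicle-well nuclei counts, with each value a median of duplicate plates.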

[2] = compound: Nc1ccccc1NC(=O)c1ccc(CNC(=O)OCc2cccnc2)cc1 [Entinostat] + Nc1nc2[nH]cc(CCc3ccc(C(=O)N[C@@H](CCC(=O)O)C(=O)O)cc3)c2c(=O)[nH]1 [Pemetrexed] (partner 0.2 µM)
Outline: as §1

[3] = compound: Nc1ccccc1NC(=O)c1ccc(CNC(=O)OCc2cccnc2)cc1 [Entinostat] + CC1(C)CCC(c2ccc(Cl)cc2)=C(CN2CCN(c3ccc(C(=O)NS(=O)(=O)c4ccc(N[C@H](CCN5CCOCC5)CSc5ccccc5)c(S(=O)(=O)C(F)(F)F)c4)cc3)CC2)C1 [Navitoclax] (partner 0.5 µM)
Outline: as §1

[4] = compound: Nc1ccccc1NC(=O)c1ccc(CNC(=O)OCc2cccnc2)cc1 [Entinostat] + COc1cc2c(Oc3ccc(NC(=O)C4(C(=O)Nc5ccc(F)cc5)CC4)cc3F)ccnc2cc1OCCCN1CCOCC1 [Foretinib] (partner 0.25 µM)
Outline: as §1

| Cell Line | relative viability ([1]; first compound 0.02 µM) | relative viability ([1]; first compound 0.06325 µM) | relative viability ([1]; first compound 0.2 µM) | relative viability ([1]; first compound 0.6325 µM) | relative viability ([1]; first compound 2 µM) | relative viability ([2]; first compound 0.02 µM) | relative viability ([2]; first compound 0.06325 µM) | relative viability ([2]; first compound 0.2 µM) | relative viability ([2]; first compound 0.6325 µM) | relative viability ([2]; first compound 2 µM) | relative viability ([3]; first compound 0.02 µM) | relative viability ([3]; first compound 0.06325 µM) | relative viability ([3]; first compound 0.2 µM) | relative viability ([3]; first compound 0.6325 µM) | relative viability ([3]; first compound 2 µM) | relative viability ([4]; first compound 0.02 µM) | relative viability ([4]; first compound 0.06325 µM) | relative viability ([4]; first compound 0.2 µM) | relative viability ([4]; first compound 0.6325 µM) | relative viability ([4]; first compound 2 µM) |
| --- | --- | --- | --- | --- | --- | --- | --- | --- | --- | --- | --- | --- | --- | --- | --- | --- | --- | --- | --- | --- |
| LCLC-97TM1 | 0.882 | 0.646 | 0.748 | 0.782 | 0.615 | 0.149 | 0.169 | 0.148 | 0.196 | 0.168 | 0.341 | 0.358 | 0.473 | 0.308 | 0.272 | 1.05 | 0.934 | 1 | 0.995 | 0.844 |
| LK-2 | 0.292 | 0.389 | 0.388 | 0.286 | 0.301 | 0.365 | 0.278 | 0.282 | 0.276 | 0.132 | 0.719 | 0.752 | 0.659 | 0.443 | 0.21 | 1.02 | 1.31 | 0.905 | 0.683 | 0.543 |
| LOU-NH91 | 0.565 | 0.607 | 0.574 | 0.566 | 0.509 | 0.381 | 0.333 | 0.326 | 0.341 | 0.379 | 0.72 | 0.721 | 0.625 | 0.428 | 0.315 | 0.937 | 0.984 | 0.919 | 0.844 | 0.779 |
| LU99A | 0.529 | 0.577 | 0.451 | 0.477 | 0.439 | 0.188 | 0.181 | 0.184 | 0.175 | 0.179 | 0.752 | 0.916 | 0.75 | 0.567 | 0.421 | 0.773 | 0.739 | 0.76 | 0.579 | 0.442 |
| LXF-289 | 0.209 | 0.261 | 0.177 | 0.178 | 0.185 | 0.878 | 0.878 | 0.869 | 0.719 | 0.665 | 0.929 | 0.908 | 0.922 | 0.786 | 0.567 | 1.01 | 0.916 | 0.88 | 0.825 | 0.59 |
| NCI-H23 | 0.781 | 0.971 | 0.961 | 0.741 | 0.378 | 0.76 | 0.892 | 0.728 | 0.685 | 0.319 | 0.727 | 0.88 | 0.873 | 0.668 | 0.433 | 1.05 | 1.09 | 1.01 | 0.445 | 0.43 |
| NCI-H322M | 0.271 | 0.274 | 0.275 | 0.298 | 0.313 | 0.66 | 0.692 | 0.716 | 0.599 | 0.583 | 1.3 | 1.17 | 1.27 | 1.27 | 0.845 | 0.978 | 1.16 | 1.15 | 0.993 | 0.854 |
| NCI-H441 | 0.705 | 0.602 | 0.557 | 0.259 | 0.124 | 0.287 | 0.29 | 0.255 | 0.227 | 0.166 | 0.689 | 0.505 | 0.632 | 0.233 | 0.0467 | 1.08 | 1.05 | 0.805 | 0.377 | 0.298 |
| NCI-H460 | 0.52 | 0.548 | 0.235 | 0.0904 | 0.0466 | 0.0727 | 0.068 | 0.076 | 0.0606 | 0.041 | 1.08 | 0.973 | 1.04 | 0.0885 | 0.0187 | 0.967 | 0.954 | 0.699 | 0.193 | 0.0625 |
| NCI-H520 | 0.248 | 0.335 | 0.238 | 0.325 | 0.286 | 0.644 | 0.712 | 0.875 | 0.689 | 0.418 | 1.02 | 1.02 | 1.21 | 0.916 | 0.456 | 0.686 | 0.941 | 0.803 | 0.683 | 0.626 |
| NCI-H596 | 0.627 | 0.593 | 0.576 | 0.448 | 0.378 | 0.499 | 0.514 | 0.528 | 0.439 | 0.446 | 0.923 | 0.962 | 0.861 | 0.8 | 0.581 | 0.851 | 0.727 | 0.913 | 0.698 | 0.655 |
| NCI-H647 | 0.197 | 0.133 | 0.144 | 0.0844 | 0.064 | 0.192 | 0.184 | 0.161 | 0.0878 | 0.0714 | 0.96 | 0.995 | 0.928 | 0.374 | 0.0716 | 1.23 | 1.12 | 0.826 | 0.465 | 0.23 |
| NCI-H838 | 0.424 | 0.324 | 0.455 | 0.469 | 0.258 | 0.231 | 0.222 | 0.268 | 0.247 | 0.183 | 1.21 | 1.27 | 1.17 | 0.694 | 0.296 | 1.05 | 1.23 | 1.12 | 0.746 | 0.321 |
| NCI-H1355 | 0.69 | 0.687 | 0.583 | 0.429 | 0.306 | 0.99 | 0.945 | 0.874 | 0.749 | 0.614 | 0.987 | 0.946 | 0.747 | 0.583 | 0.444 | 0.903 | 0.91 | 0.751 | 0.695 | 0.571 |
| NCI-H1395 | 0.477 | 0.425 | 0.42 | 0.286 | 0.405 | 0.884 | 1.05 | 0.911 | 0.76 | 0.719 | 1.12 | 1.25 | 1.19 | 0.875 | 0.794 | 1 | 1.03 | 0.994 | 0.846 | 0.68 |
| NCI-H1437 | 0.434 | 0.423 | 0.188 | 0.137 | 0.126 | 0.318 | 0.282 | 0.231 | 0.178 | 0.148 | 1.01 | 0.679 | 0.432 | 0.216 | 0.155 | 0.992 | 0.804 | 0.456 | 0.352 | 0.261 |
